One may read the AC50 as the midpoint of the concentration-response curve, whichever way the signal moves. By EC50 is commonly meant the concentration that produces a half-maximal response. As usually defined, the IC50 is the midpoint of a concentration-inhibition curve. As a reminder, the CC50 is the concentration giving 50% cytotoxicity.

For assay [1], the target named is T1, Replicative DNA helicase DnaB (Mycobacterium tuberculosis, UniProt P9WMR3).
T1 sequence (P9WMR3 whole entry): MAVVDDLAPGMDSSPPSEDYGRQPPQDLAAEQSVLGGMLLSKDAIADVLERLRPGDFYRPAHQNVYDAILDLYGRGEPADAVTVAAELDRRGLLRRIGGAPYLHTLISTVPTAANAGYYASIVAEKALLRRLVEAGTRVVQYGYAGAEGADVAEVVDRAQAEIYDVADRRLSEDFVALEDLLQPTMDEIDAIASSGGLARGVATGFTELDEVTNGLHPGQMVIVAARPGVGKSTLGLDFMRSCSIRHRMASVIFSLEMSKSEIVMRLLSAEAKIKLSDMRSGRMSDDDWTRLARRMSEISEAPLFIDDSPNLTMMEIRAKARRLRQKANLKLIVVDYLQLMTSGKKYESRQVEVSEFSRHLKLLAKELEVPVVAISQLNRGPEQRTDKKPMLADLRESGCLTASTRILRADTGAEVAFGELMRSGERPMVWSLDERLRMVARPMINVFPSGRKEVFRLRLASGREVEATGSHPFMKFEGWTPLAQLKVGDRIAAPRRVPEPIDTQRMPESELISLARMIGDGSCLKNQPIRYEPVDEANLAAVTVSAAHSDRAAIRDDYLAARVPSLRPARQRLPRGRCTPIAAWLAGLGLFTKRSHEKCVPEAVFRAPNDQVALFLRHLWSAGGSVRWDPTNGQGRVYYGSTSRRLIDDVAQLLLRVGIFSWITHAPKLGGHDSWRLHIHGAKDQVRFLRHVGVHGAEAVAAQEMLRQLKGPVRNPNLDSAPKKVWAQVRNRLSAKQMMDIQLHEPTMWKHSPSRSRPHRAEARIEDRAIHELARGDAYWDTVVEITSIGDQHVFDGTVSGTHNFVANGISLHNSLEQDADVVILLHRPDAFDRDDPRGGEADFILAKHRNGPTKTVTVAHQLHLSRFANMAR
Description: DnaB intein splicing inhibitors, dose response, biochemical, cell-free fluorescence (AID 449749). The format is functional.

In assay [2] the target is T2, Heat shock factor protein 1 (Mus musculus, UniProt P38532).
T2 sequence (P38532 whole entry): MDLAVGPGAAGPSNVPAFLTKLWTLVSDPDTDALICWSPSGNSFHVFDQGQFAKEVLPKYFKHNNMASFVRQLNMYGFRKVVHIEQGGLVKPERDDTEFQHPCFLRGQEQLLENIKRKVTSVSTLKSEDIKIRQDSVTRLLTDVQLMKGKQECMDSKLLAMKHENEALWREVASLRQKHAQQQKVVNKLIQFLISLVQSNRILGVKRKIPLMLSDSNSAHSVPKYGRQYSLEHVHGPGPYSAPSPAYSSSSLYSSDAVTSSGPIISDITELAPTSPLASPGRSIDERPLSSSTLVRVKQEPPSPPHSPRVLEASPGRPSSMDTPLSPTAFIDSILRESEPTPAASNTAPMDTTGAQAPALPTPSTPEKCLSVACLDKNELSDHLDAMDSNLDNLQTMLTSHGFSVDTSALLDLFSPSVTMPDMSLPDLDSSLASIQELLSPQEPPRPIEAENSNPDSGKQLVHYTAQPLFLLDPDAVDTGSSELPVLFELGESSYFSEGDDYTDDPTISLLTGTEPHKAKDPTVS
Description: inhibition of MG132-induced HSE-luciferase signal, confirmation, cell-based, NIH3T3, luminescence, dose retest (AID 2382).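 Note: NIH3T3 fibroblasts with HSF1-driven luciferase reporter stressed by proteasome inhibitor MG132; luminescence from HSF1-driven luciferase expression after 8 hours of MG132 stress.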 The class given is functional.

The next assay addresses Protein S100-A4 (Homo sapiens, UniProt P26447). Description: S100A4-myosin IIA binding inhibitor potency, dose response, biochemical, fluorescence polarization, cherry-picked hits (AID 687001). The format is functional. Background: In fluorescence polarisation assays a small probe gives low polarisation when free and higher when bound to something large.
The target of assay [3] is T3, Tyrosyl-DNA phosphodiesterase 2 (Homo sapiens, UniProt O95551).
T3 sequence (O95551 whole entry): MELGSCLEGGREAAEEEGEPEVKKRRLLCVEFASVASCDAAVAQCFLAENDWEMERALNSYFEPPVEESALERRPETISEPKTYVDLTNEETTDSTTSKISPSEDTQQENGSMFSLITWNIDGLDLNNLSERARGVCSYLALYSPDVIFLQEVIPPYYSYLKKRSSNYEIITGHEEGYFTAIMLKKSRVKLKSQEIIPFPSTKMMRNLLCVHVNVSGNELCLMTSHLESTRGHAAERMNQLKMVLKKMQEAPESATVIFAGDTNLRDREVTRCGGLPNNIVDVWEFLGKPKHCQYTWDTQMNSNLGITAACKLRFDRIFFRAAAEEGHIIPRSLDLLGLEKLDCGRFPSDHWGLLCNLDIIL
Nature of the assay: human TDP2 enzyme inhibitors, dose response, biochemical, epi absorbance, IC50 (AID 743297).

A further assay deals with Genome polyprotein (dengue virus type 2, UniProt P29990). Nature of the assay: Dengue-2 NS5 methyltransferase inhibitors, primary screen, biochemical, confirmation dose response (AID 588689). The format is functional.
The next assay relates to INS1. Nature of the assay: beta cell apoptosis inhibitors, cytokine rescue, dose response, luminescence, retest (AID 449756).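 Note: cell death triggered by IL-1 beta plus TNF-alpha plus IFN-gamma mixture; protective hits raise ATP signal compared with cytokine alone wells.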 The format is functional, cell-based. Particulars: Rattus norvegicus.
The target in the next assay is T4, Protein RecA (Mycobacterium tuberculosis, UniProt P9WHJ3).
T4 sequence (P9WHJ3 whole entry): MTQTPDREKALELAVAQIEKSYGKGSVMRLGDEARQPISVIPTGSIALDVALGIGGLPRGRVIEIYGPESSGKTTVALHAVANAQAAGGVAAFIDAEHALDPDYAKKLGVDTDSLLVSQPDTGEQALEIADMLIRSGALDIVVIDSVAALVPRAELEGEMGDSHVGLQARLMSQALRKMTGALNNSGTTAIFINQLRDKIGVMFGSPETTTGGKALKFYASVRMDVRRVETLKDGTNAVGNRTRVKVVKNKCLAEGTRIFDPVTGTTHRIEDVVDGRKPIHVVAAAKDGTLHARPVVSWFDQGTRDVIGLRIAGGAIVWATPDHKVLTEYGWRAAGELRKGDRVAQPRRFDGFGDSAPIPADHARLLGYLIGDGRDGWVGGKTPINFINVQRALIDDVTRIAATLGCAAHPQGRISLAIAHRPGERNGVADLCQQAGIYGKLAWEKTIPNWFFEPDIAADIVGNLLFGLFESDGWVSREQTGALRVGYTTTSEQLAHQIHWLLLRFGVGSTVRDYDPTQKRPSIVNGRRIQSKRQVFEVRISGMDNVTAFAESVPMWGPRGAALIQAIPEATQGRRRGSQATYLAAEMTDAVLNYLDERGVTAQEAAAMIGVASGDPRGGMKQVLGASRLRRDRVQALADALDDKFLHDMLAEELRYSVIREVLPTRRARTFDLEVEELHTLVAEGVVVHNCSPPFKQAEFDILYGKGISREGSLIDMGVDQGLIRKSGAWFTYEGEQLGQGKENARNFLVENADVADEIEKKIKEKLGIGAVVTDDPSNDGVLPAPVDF
Nature of the assay: Fluorescence Cell-Free Homogeneous Dose Retest to Identify Inhibitors of RecA-Intein Splicing Activity. [Related pubchem assays (depositor defined):AID2097, AID2223, AID489010, AID492950]. The format is functional.

In the next assay the test system is Vero. Description: Vero cell cytotoxicity, cytotoxicity control for flavivirus capping enzyme inhibitors (AID 588742). The format is functional. Particulars: Chlorocebus sabaeus.
The target in a further assay is T5, Caspase-6 (Homo sapiens, UniProt P55212).
T5 sequence (P55212 whole entry): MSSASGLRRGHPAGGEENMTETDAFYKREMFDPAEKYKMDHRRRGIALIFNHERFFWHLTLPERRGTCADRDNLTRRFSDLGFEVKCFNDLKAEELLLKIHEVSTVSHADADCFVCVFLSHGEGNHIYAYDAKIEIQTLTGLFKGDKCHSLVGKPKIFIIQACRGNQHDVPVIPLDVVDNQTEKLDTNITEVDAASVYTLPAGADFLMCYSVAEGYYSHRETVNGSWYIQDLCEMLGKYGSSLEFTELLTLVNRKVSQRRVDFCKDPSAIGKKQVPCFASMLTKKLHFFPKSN
Nature of the assay: human caspase-6 inhibitors, dose response, biochemical, VEID-R110 fluorescence, cherry-pick (AID 720632).

In assay [4] the target is T6, Endoribonuclease toxin MazF (Escherichia coli K-12, UniProt P0AE70).
T6 sequence (P0AE70 whole entry): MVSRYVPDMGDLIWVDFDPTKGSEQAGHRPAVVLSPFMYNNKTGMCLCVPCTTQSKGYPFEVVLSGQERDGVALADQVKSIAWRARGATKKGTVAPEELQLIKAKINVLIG
Description: fluorescent RNA oligo signal without MazF, dose response, counter-screen for MazEF activator project, biochemical, fluorescence, single-stranded RNase substrate (AID 588502). The class given is functional. (The purpose of a counterscreen is to sort out artefacts and off-target activity.)

In assay [5] the target is T6, Endoribonuclease toxin MazF. Nature of the assay: MazF endoribonuclease activators, SAR follow-up, biochemical, fluorescence, single-stranded RNA substrate (AID 588603). The format is functional.
Assay [6] has the same target. Description: MazF toxin RNase activators, dose response, biochemical, fluorescence, single-stranded RNA substrate, uHTS hits (AID 588481). The format is functional.
The target is the same in assay [7]. Nature of the assay: SAR analysis of small molecule activators of the MazEF TA System via a fluorescence-based single-stranded RNase assay counterscreen. [Related pubchem assays (depositor defined):AID504720, AID504743]. The format is functional.
The next assay concerns MEF. Nature of the assay: SAR analysis of small molecule cytotoxicity of MazEF TA System activators in embryonic fibroblast (MEF) cells. [Related pubchem assays (depositor defined):AID504720, AID504743]. The format is functional. Particulars: Mus musculus.

Active and inactive are the calls of the source.

Chain of Protein S100-A4 (P26447 whole entry): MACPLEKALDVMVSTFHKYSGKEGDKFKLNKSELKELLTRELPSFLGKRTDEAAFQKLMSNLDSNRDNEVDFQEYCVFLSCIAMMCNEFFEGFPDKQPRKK
Chain of Genome polyprotein (P29990 2492-3391 limits assumed): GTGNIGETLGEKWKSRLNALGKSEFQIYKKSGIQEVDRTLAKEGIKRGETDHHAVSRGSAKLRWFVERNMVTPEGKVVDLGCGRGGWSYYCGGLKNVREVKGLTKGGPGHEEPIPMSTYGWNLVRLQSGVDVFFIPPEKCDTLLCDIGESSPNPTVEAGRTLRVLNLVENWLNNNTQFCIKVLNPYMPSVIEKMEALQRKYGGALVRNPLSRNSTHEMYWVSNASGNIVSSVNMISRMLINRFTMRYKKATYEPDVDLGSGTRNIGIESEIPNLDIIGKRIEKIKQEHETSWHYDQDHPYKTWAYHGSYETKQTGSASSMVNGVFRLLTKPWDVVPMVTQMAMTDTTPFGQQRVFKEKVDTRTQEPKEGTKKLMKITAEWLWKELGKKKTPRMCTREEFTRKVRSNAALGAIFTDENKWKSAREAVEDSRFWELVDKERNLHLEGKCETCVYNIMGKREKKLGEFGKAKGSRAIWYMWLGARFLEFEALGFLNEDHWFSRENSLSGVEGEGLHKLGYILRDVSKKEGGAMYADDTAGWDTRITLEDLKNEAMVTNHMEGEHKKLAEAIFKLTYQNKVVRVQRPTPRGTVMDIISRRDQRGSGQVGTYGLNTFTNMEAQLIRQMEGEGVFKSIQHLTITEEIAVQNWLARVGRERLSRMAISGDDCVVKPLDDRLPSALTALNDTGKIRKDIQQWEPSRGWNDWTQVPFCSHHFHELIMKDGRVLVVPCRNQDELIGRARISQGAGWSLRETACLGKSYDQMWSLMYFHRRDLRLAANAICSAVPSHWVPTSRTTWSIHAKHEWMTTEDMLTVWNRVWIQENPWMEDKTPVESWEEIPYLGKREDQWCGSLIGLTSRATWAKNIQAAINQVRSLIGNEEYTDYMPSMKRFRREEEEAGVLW

As to `CCC(CNc1cc(OC)cc2cccnc12)NC1CCCCC1` (centres undefined), the AC50 in assay [1] was > 380 µM (inactive); at Protein S100-A4, 5.07 µM (active); with INS1, 7.62 µM (active); at Caspase-6, 39 µM (active). The EC50 in assay [2] is > 195 µM (not active); on Protein RecA, 1.95 µM (active). The results for the IC50 (in assay [3]; at Genome polyprotein) were 113 µM (inactive) and 39.2 µM (active), respectively. Moreover, in the assay on Vero, the CC50 is > 40 µM (active).
For the compound `Cc1ccc(C(=O)Oc2cc(N)n(S(=O)(=O)c3ccc(F)cc3)n2)cc1`, the half-maximal effective concentration (EC50) was 4.1 µM (active) in [4], > 99 µM (inactive) in [5], 5.26 µM (active) in assay [6] and > 99 µM (inactive) in assay [7]. The CC50 with MEF was > 99 µM (inactive).
